According to publication PMC7144397 (Molecules, 2020):

Molecular target: myotoxic Asp-49 phospholipase A2 (PLA2) from Crotalus durissus cumanensis venom
Assay: chromogenic PLA2 assay, […] nm, 96-well plate
Format: biochemical
Conditions: substrate 4-nitro-3-octanoyloxybenzoic acid type (4N3OBA, 20 μL of 10 mM); 10 mM Tris-HCl, 10 mM CaCl2, 100 mM NaCl, pH 8.0; 37 °C; 20 μg PLA2, 30 min pre-incubation; from linear portion of the dose-r

Work on `O=[N+]([O-])c1ccc(C(=S)SCc2ccccc2)cc1` [I, Benzyl 4-nitrobenzenecarbodithioate] yielded an IC50 of 55.6 ± 4.6 µM.
